Test results as given in publication PMC4476799, “Englerin A Agonizes the TRPC4/C5 Cation Channels to Inhibit Tumor Cell Line Proliferation” (PLoS ONE, 2015).
Like-named read-outs stand apart in the source and are kept apart here.

System: cancer cell lines from the cancer cell line encyclopedia (CCLE)
Test: Cell line profiling (CLiP) proliferation experiment
Format: cell-based
Design: key to Compound Activity (1-inactive;2-active): 1-inactive; 2-active; ACTIVITY_AREA: scale not given here; AMAX: unit not given here
Settings: for EC50: read-out: Inflection Point; for IC50: read-out: Crossing Point
Description: Compound profiling experiment and data analysis was performed as previously described. Data was imported and plotted using the Tibco Spotfire DXP application. Lines were categorized as sensitive, intermediate and refractory as follows: Amax<-40 & Inflection Point <2 ~ Sensitive, Amax>-20 & Inflection Point >10 ~ Refractory, all else were called Intermediate. Cancer Cell line HG-U133 Plus 2 data was processed and normalized as described. […] Five sets of refractory cell lines were generated from the pool of refractory cell lines trying to match the lineage composition of the set of sensitive cell lines. The limma package was used as previously described to perform the statistical comparison.

[1] = cell line A-204, soft_tissue, NS
[2] = cell line BDCM, haematopoietic_and_lymphoid_tissue, acute_lymphoblastic_B_cell_leukaemia
[3] = cell line BHY, upper_aerodigestive_tract, squamous_cell_carcinoma
[4] = cell line BICR 6, upper_aerodigestive_tract, squamous_cell_carcinoma
[5] = cell line BICR 22, upper_aerodigestive_tract, squamous_cell_carcinoma
[6] = cell line CAL-29, urinary_tract, transitional_cell_carcinoma
[7] = cell line DOHH-2, haematopoietic_and_lymphoid_tissue
[8] = cell line EB1, haematopoietic_and_lymphoid_tissue
[9] = cell line EB2, haematopoietic_and_lymphoid_tissue
[10] = cell line EM-2 (haematopoietic_and_lymphoid_tissue, blast_phase_chronic_myeloid_leukaemia)
[11] = cell line EM-2, haematopoietic_and_lymphoid_tissue
[12] = cell line EOL-1, haematopoietic_and_lymphoid_tissue
[13] = cell line FaDu, upper_aerodigestive_tract

CC(C)[C@@]12C[C@@H](O)[C@@](C)(O1)[C@@H]1CC[C@@H](C)[C@H]1[C@@H]2OC(=O)/C=C/c1ccccc1 [Englerin B]
EC50 (cell line A4/Fuk, haematopoietic_and_lymphoid_tissue, diffuse_large_B_cell_lymphoma): 18.1 µM
ACTIVITY_AREA [1]: 22.22
AMAX [1]: -45.81
RESPONSE [1]: INTERMEDIATE
IC50 (cell line AGS, stomach, adenocarcinoma): 5.71 µM
IC50 [2]: 16.9 µM
EC50 [2]: 16.9 µM
IC50 [3]: 23.5 µM
EC50 [3]: 9.33 µM
IC50 [4]: 23 µM
EC50 [4]: 23 µM
IC50 (cell line BICR 16, upper_aerodigestive_tract, squamous_cell_carcinoma): 9.26 µM
IC50 [5]: 18.8 µM
EC50 [5]: 15 µM
IC50 (cell line C32, skin, NS): > 30 µM
IC50 [6]: 15.9 µM
EC50 [6]: 13.1 µM
Compound Activity (1-inactive;2-active) (cell line COLO-800 (skin, NS)): 1
Compound Activity (1-inactive;2-active) (cell line COV504 (ovary, NS)): 1
Compound Activity (1-inactive;2-active) (cell line Caov-3 (ovary, adenocarcinoma)): 1
Compound Activity (1-inactive;2-active) (cell line DBTRG-05MG (central_nervous_system, astrocytoma_Grade_IV)): 1
Compound Activity (1-inactive;2-active) (cell line DLD-1 (large_intestine, adenocarcinoma)): 1
ACTIVITY_AREA (cell line DMS 79, lung): 49.26
AMAX (cell line DMS 79, lung): -10.4
RESPONSE (cell line DMS 79, lung): REFRACTORY
ACTIVITY_AREA [7]: 33.67
AMAX [7]: -98.82
RESPONSE [7]: INTERMEDIATE
Compound Activity (1-inactive;2-active) (cell line DU 145 (prostate, NS)): 1
ACTIVITY_AREA (cell line DU 145, prostate): 176.13
AMAX (cell line DU 145, prostate): -54.93
RESPONSE (cell line DU 145, prostate): INTERMEDIATE
Compound Activity (1-inactive;2-active) (cell line DV-90 (lung, adenocarcinoma)): 1
ACTIVITY_AREA (cell line DV-90, lung): 23.59
AMAX (cell line DV-90, lung): -71.93
RESPONSE (cell line DV-90, lung): INTERMEDIATE
ACTIVITY_AREA [8]: 13.39
AMAX [8]: -56.14
RESPONSE [8]: INTERMEDIATE
IC50 [8]: 28.7 µM
ACTIVITY_AREA [9]: 28.45
AMAX [9]: -57.08
RESPONSE [9]: INTERMEDIATE
IC50 [9]: 25.8 µM
ACTIVITY_AREA (cell line EBC-1, lung): 56.14
AMAX (cell line EBC-1, lung): -53.25
RESPONSE (cell line EBC-1, lung): INTERMEDIATE
Compound Activity (1-inactive;2-active) (cell line EFM-19 (breast, ductal_carcinoma)): 1
ACTIVITY_AREA (cell line EFM-19, breast): 28.98
AMAX (cell line EFM-19, breast): -31.96
RESPONSE (cell line EFM-19, breast): INTERMEDIATE
ACTIVITY_AREA (cell line EFM-192A, breast): 78.14
AMAX (cell line EFM-192A, breast): -57.28
RESPONSE (cell line EFM-192A, breast): INTERMEDIATE
Compound Activity (1-inactive;2-active) [10]: 1
IC50 [10]: > 30 µM
ACTIVITY_AREA [11]: 14.33
AMAX [11]: -44.27
RESPONSE [11]: INTERMEDIATE
IC50 [11]: > 30 µM
ACTIVITY_AREA (cell line EN, endometrium): 5.5
AMAX (cell line EN, endometrium): -23.22
RESPONSE (cell line EN, endometrium): INTERMEDIATE
IC50 (cell line EN, endometrium): > 30 µM
IC50 (cell line EN): > 30 µM
ACTIVITY_AREA [12]: 60.59
AMAX [12]: -94.78
RESPONSE [12]: INTERMEDIATE
ACTIVITY_AREA (cell line ES-2, ovary): 44.96
AMAX (cell line ES-2, ovary): -44.71
RESPONSE (cell line ES-2, ovary): INTERMEDIATE
IC50 (cell line ES-2, ovary): > 30 µM
IC50 (cell line ES-2): > 30 µM
ACTIVITY_AREA (cell line ESS-1, endometrium): 41.09
AMAX (cell line ESS-1, endometrium): -72.67
RESPONSE (cell line ESS-1, endometrium): INTERMEDIATE
ACTIVITY_AREA (cell line FU-OV-1, ovary): 158.99
AMAX (cell line FU-OV-1, ovary): -69.93
RESPONSE (cell line FU-OV-1, ovary): INTERMEDIATE
IC50 (cell line FU-OV-1, ovary): 3.19 µM
ACTIVITY_AREA [13]: 21.14
AMAX [13]: -61.31
RESPONSE [13]: INTERMEDIATE
ACTIVITY_AREA (cell line G-361, skin): 55.99
AMAX (cell line G-361, skin): -32.98
RESPONSE (cell line G-361, skin): INTERMEDIATE
ACTIVITY_AREA (cell line G-401, soft_tissue): 47.08
AMAX (cell line G-401, soft_tissue): -74.97
RESPONSE (cell line G-401, soft_tissue): INTERMEDIATE
ACTIVITY_AREA (cell line G-402, soft_tissue): 90.01
AMAX (cell line G-402, soft_tissue): -70.25
RESPONSE (cell line G-402, soft_tissue): INTERMEDIATE
